Measured values: patent US6569878B1, “Substituted 4-amino-thiazol-2-yl compounds as cyclin-dependent kinase inhibitors” (Agouron Pharmaceuticals Inc., priority 1997, dated 2003)
pIC50, pKi: −log10 of the molar value.

What was measured:
[1] = target: T1, human CDK1 (cdc2) and cyclin B (Homo sapiens, UniProt P06493); assay: Inhibition of CDK1(cdc2)/cyclin B histone H1 kinase activity; type: biochemical; settings: read-out: Ki CDK 1/B
T1 construct: purchased New England Biolabs (Beverly Mass.)
Method: (§1) Cyclin-dependent kinase activity was measured by quantifying the enzyme-catalyzed, time-dependent incorporation of radioactive phosphate from [^32P]ATP or [^33P]ATP into a protein substrate. Unless noted otherwise, assays were performed in 96-well plates in a total volume of 50 μL, in the presence of 10 mM HEPES (N-[2-hydroxyethyl]piperazine-N′-[2-ethanesulfonic acid]) (pH 7.4), 10 mM MgCl2, 25 μM adenosine triphosphate (ATP), 1 mg/mL ovalbumin, 5 μg/mL leupeptin, 1 mM dithiothreitol, 10 mM β-glycerophosphate, 0.1 mM sodium vanadate, 1 mM sodium fluoride, 2.5 mM ethylene glycol-bis(β-aminoethyl ether)-N,N,N′N′-tetraacetic acid (EGTA), 2% (v/v) dimethylsulfoxide, and 0.03-0.4 μCi [^32/33P]ATP per reaction. Reactions were initiated with enzyme, incubated at 30° C., and terminated after 20 minutes by the addition of ethylenediaminetetraacetic acid (EDTA) to 250 mM. The phosphorylated substrate was then captured on a nitrocellulose or phosphocellulose membrane using a 96-well filtration manifold, and unincorporated radioactivity was removed by repeated washing with 0.85% phosphoric acid. Radioactivity was quantified by exposing the dried membranes to a phosphorimager.
(§2) Apparent Ki values were measured by assaying enzyme activity in the presence of different inhibitor compound concentrations and subtracting the background radioactivity measured in the absence of enzyme. The kinetic parameters (kcat, Km for ATP) were measured for each enzyme under the usual assay conditions by determining the dependence of initial rates on ATP concentration. Inhibition data were fit to an equation for competitive inhibition using Kaleidagraph (Synergy Software), or were fit to an equation for competitive tight-binding inhibition using the software KineTic (BioKin, Ltd.).
The complex of human CDK1 (cdc2) and cyclin B was purchased from New England Biolabs (Beverly Mass.). Alternatively, a CDK1/glutathione-S-transferase-cyclin B1 complex was purified using glutathione affinity chromatography from insect cells that had been co-infected with the corresponding baculovirus expression vectors. The assay was executed as described above at 30° C. using 2.5 units of cdc2/cyclin B, 10 μg Histone H1 protein, and 0.1-0.3 μCi [^32/33P]ATP per assay. Phosphorylated histone substrate was captured by microfiltration on a phosphocellulose P81 membrane and quantified using a phosphorimager as described above. Ki values were measured using the described curve-fitting programs.

U2-OS = assay: Inhibition of cell growth, MTT assay, U2-OS; type: cell-based; settings: for pIC50 / IC90: Homo sapiens, U2OS; for % inhibition of growth in parentheses after >25: concentration not given
Method: (§3) The water-insoluble purple formazan product was then detected spectrophotometrically. […] Plates were incubated for four hours before addition of inhibitor compounds. Different concentrations of inhibitor compounds were added in 0.5% (v/v) dimethylsulfoxide (15 μL/well), and cells were incubated at 37° C. (5% CO2) for four to six days (depending on cell type). At the end of the incubation, MTT was added to a final concentration of 0.2 mg/mL, and cells were incubated for 4 hours more at 37° C. After centrifugation of the plates and removal of medium, the absorbance of the formazan (solubilized in dimethylsulfoxide) was measured at 540 nm.

[2] = target: T2, complex of human CDK4 and cyclin D3 (Homo sapiens, UniProt P11802); assay: Inhibition of CDK4/cyclin D retinoblastoma kinase activity (D-type cyclin is D3); type: biochemical; settings: superscript a: D-type cyclin is D3; apparent Ki; read-out: Ki CDK 4/D
T2 construct: made in house; host or cells: insect cells, co-infected with baculovirus
Method in brief: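 Apparent Ki derived by fitting background-corrected activity to competitive (or, for tight binders, competitive tight-binding) equations with measured ATP Km. Rb phosphorylation by radiolabelled ATP was measured at 30°C, 20 min standard or 60 min at 5 nM complex for tight binders, via nitrocellulose capture and phosphorimager.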

HCT116 = assay: Inhibition of cell growth, MTT assay, HCT116; type: cell-based, human; settings: for pIC50 / IC90: Homo sapiens, HCT-116; for % inhibition of growth in parentheses after >25: concentration not given
Method: as §3

Saos-2 = assay: Inhibition of cell growth, MTT assay, Saos-2; type: cell-based; settings: Saos-2, MTT assay; for pIC50 / IC90: Homo sapiens; for % inhibition of growth in parentheses after >25: concentration not given
Method: as §3

CDK2/cyclin A = target: T3, CDK2/cyclin A (Homo sapiens, UniProt P24941); assay: Inhibition of CDK2/cyclin A retinoblastoma kinase activity; type: biochemical; settings: read-out: Ki CDK 2/A
T3 construct: made in house; host or cells: CDK2: insect cells (baculovirus); cyclin A: E. coli, then limited proteolysis
Method: as §1, §2
CDK2 was purified using published methodology (Rosenblatt et al., “Purification and Crystallization of Human Cyclin-dependent Kinase 2,” J. Mol. Biol., vol. 230, 1993, pp. 1317-1319) from insect cells that had been infected with a baculovirus expression vector. […] Purified, proteolyzed cyclin A was included in the assay at a three- to five-fold molar excess to CDK2. Alternatively, a complex of CDK2 and proteolyzed cyclin A was prepared and purified by gel filtration. The substrate for this assay was the same Rb substrate fragment used for the CDK4 assays, and the methodology of the CDK2/cyclin A and the CDK4/cyclin D3 assays was essentially the same, except that CDK2 was present at 150 nM or 5 nM. Ki values were measured as described above.

T2 sequence (P11802 whole entry): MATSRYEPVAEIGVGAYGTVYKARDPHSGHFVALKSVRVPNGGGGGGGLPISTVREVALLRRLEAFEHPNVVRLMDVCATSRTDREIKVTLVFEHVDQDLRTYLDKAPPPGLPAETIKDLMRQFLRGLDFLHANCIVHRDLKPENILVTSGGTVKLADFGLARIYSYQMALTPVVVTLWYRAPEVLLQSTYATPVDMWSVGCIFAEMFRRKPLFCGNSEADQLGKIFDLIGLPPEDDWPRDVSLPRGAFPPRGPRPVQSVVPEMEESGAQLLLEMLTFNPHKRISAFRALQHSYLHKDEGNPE
T2 sequence (P30281 whole entry partner): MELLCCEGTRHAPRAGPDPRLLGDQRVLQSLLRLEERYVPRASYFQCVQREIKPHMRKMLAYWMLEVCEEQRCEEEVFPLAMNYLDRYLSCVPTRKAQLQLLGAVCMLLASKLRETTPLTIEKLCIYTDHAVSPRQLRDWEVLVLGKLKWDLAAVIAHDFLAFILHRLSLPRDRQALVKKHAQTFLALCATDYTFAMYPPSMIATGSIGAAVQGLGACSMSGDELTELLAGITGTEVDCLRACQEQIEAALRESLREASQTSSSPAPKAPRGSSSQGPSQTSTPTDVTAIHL
T1 sequence (P06493 whole entry): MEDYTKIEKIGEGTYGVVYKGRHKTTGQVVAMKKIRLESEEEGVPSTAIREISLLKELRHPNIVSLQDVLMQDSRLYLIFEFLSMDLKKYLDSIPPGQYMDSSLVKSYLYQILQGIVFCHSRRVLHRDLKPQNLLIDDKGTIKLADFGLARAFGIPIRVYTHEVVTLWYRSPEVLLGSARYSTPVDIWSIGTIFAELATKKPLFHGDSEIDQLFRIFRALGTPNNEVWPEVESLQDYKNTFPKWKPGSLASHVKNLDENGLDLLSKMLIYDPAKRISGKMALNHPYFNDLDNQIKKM
T1 sequence (P14635 whole entry partner): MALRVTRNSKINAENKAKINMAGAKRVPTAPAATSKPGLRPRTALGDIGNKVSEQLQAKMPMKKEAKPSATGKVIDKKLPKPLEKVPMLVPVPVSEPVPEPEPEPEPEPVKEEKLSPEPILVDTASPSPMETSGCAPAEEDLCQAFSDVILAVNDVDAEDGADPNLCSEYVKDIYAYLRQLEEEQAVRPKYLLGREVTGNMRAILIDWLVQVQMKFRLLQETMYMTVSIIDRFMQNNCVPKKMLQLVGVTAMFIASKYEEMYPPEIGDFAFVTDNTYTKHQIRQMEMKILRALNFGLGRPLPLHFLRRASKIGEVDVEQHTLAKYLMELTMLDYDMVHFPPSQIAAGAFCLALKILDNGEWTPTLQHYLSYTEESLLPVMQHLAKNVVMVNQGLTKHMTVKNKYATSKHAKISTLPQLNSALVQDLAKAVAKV

Compound	pKi [1]	pIC50 (U2-OS)	IC90 (U2-OS) [µM]	pKi [2]	pIC50 (HCT116)	IC90 (HCT116) [µM]	pIC50 (Saos-2)	IC90 (Saos-2) [µM]	pKi (CDK2/cyclin A)	% inhibition of growth in parentheses after >25 (U2-OS) [%]	% inhibition of growth in parentheses after >25 (HCT116) [%]	% inhibition of growth in parentheses after >25 (Saos-2)
Cc1c(C(=O)c2sc(Nc3ccc(S(N)(=O)=O)cc3)nc2N)sc2ccccc12 [C(49), 4-[4-Amino-5-(3-methyl-benzo[b]thiophene-2-carbonyl)-thiazol-2-ylamino]-benzenesulfonamide]	7.47	4.85	22	7.64	5.25	12	5.40	20	8.00	–	–	–
CC(C)(C)OC(=O)N1CCN(c2ccc(Nc3nc(N)c(C(=O)c4c(F)cccc4F)s3)cc2)CC1 [C(101), 4-Amino-2-[4-(1-tert-butoxycarbonyl-piperazine-4-yl)-phenylamino]-thiazol-5-yl-(2,6-difluorophenyl)-methanone]	6.49	–	–	6.99	–	–	–	–	6.52	–	–	–
CN(C)S(=O)(=O)c1ccc(Nc2nc(N)c(C(=O)c3c(F)cccc3F)s2)cc1 [C(109), 4-[4-Amino-5-(2,6-difluoro-benzoyl)-thiazol-2-ylamino]-N,N-dimethyl-benzenesulfonamide]	7.46	5.33	19	7.08	–	–	5.82	14	7.55	–	–	–
CN1CCN(c2ccc(Nc3nc(N)c(C(=O)c4c(Cl)cccc4Cl)s3)cc2)CC1 [C(71), {4-Amino-2-[4-(4-methyl-piperazin-1-yl)-phenylamino]-thiazol-5-yl}-(2,6-dichloro-phenyl)-methanone]	6.08	–	–	–	–	–	–	–	6.32	–	–	–
CN1CCN(c2ccc(Nc3nc(N)c(C(=O)c4c(F)cccc4C(F)(F)F)s3)cc2)CC1 [C(100), {4-Amino-2-[4-(4-methyl-piperazin-1-yl)-phenylamino]-thiazol-5-yl}-(2-fluoro-6-trifluoromethyl-phenyl)-methanone]	6.04	–	–	–	–	–	–	–	6.21	–	–	–
CNS(=O)(=O)c1ccc(Nc2nc(N)c(C(=O)c3c(F)cccc3F)s2)cc1 [C(108), 4-[4-Amino-5-(2,6-difluoro-benzoyl)-thiazol-2-ylamino]-N-methyl-benzenesulfonamide]	8.05	5.85	4.8	7.64	–	–	6.51	3.2	8.17	–	–	–
Cc1ccc(C(=O)c2sc(Nc3cccnc3)nc2N)c(C)c1 [C(21), [4-Amino-2-(pyridin-3-ylamino)-thiazol-5-yl]-(2,4-dimethyl-phenyl)-methanone]	–	4.66	> 25	6.93	5.05	22	4.89	23	6.32	57	–	–
CN1CCN(S(=O)(=O)c2ccc(Nc3nc(N)c(C(=O)c4c(F)cccc4F)s3)cc2)CC1 [C(116), {4-Amino-2-[4-(4-methyl-piperazine-1-sulfonyl)-phenylamino]-thiazol-5-yl}-(2,6-difluoro-phenyl)-methanone]	7.11	–	–	6.92	–	–	–	–	6.92	–	–	–
Nc1nc(Nc2ccc3nc[nH]c3c2)sc1C(=O)c1c(Cl)cccc1Cl [C(52), [4-Amino-2-(1H-benzoimidazol-6-ylamino)-thiazol-5-yl]-(2,6-dichloro-phenyl)-methanone]	–	4.82	23	7.96	5.07	17	5.05	22	6.98	–	–	–
Nc1nc(Nc2ccc(S(=O)(=O)NCC3CCNCC3)cc2)sc1C(=O)c1c(F)cccc1F [J(4), 4-[4-Amino-5-(2,6-difluoro-benzoyl)-thiazol-2-ylamino]-N-piperidin-4-ylmethyl-benzenesulfonamide]	7.66	–	–	7.99	–	–	–	–	7.87	–	–	–
Nc1nc(Nc2ccc(N3CCOCC3)cc2)sc1C(=O)c1c(Cl)cncc1Cl [C(69), {4-Amino-2-[4-morpholin-4-yl-phenylamino]-thiazol-5-yl}-(3,5-dichloro-pyridin-4-yl)-methanone]	–	4.85	≥ 26	7.70	5.30	15	4.92	≥ 26	6.20	–	–	–
CC(=O)Nc1ccc(Cl)c(C(=O)c2sc(Nc3ccc4nc[nH]c4c3)nc2N)c1Cl [C(82), N-{3-[4-Amino-2-(1H-benzoimidazol-6-ylamino)-thiazole-5-carbonyl]-2,4-dichloro-phenyl}-acetamide]	–	< 4.60	–	7.35	< 4.60	–	< 4.60	–	6.33	1	1	15%
Nc1nc(Nc2ccc(C(=O)C3COC(=O)[C@H]3N)cc2)sc1C(=O)c1c(Cl)cncc1Cl (stereo partly drawn) [C(88), trans-3RS-Amino-4RS-{4-[4-amino-5-(3,5-dichloropyridine-4-carbonyl)-thiazol-2-ylamino]-benzoyl}-dihydro-furan-2-one]	–	< 4.60	–	7.19	4.72	> 25	4.66	> 25	6.52	26	70	(56%)
CC(=O)N1CCN(c2ccc(Nc3nc(N)c(C(=O)c4c(Cl)cccc4Cl)s3)cc2)CC1 [C(97), 2-[4-(1-Acetyl-piperazin-4-yl)-phenylamino]-4-amino-thiazol-5-yl-(2,6-dichlorophenyl)-methanone]	–	5.00	21	8.07	5.41	11	5.05	20	6.41	–	–	–
Nc1nc(Nc2ccc3nc[nH]c3c2)sc1C(=O)c1c(Cl)cc(Br)c(N)c1Cl [C(91), [4-Amino-2-(1H-benzoimidazol-6-ylamino)-thiazol-5-yl]-(3-amino-4-bromo-2,6-dichloro-phenyl)-methanone]	–	4.72	> 25	8.17	5.33	18	5.23	23	7.09	–	–	–
NC(=O)c1ccc(Nc2nc(N)c(C(=O)c3c(F)cccc3C(F)(F)F)s2)cc1 [C(113), 4-[4-Amino-5-(2-fluoro-6-trifluoromethyl-benzoyl)-thiazol-2-ylamino]-benzamide]	–	5.10	19	7.76	5.42	8	5.55	9	6.62	–	–	–
CN1CCN(c2ccc(Nc3nc(N)c(C(=O)c4c(F)cccc4F)s3)cc2)CC1 [C(80), {4-Amino-2-[4-(4-methyl-piperazin-1-yl)-phenylamino]-thiazol-5-yl}-(2,6-difluoro-phenyl)-methanone]	6.49	–	–	–	–	–	–	–	6.66	–	–	–
